| Structure (SMILES) | logP |
| --- | --- |
| Cc1ncc(CO)c(C=NNc2ccccn2)c1O | 2.46 |
| Cc1ncc(CO)c(C=NNC(=O)c2ccc(N)cc2)c1O | 1.19 |
| CC(=O)NN=Cc1c(O)ccc2ccccc12 | 2.91 |
| Cc1ncc(CO)c(C=NNC(=O)c2ccc(O)cc2)c1O | 1.89 |
| Nc1ccc(C(=O)NN=Cc2c(O)ccc3ccccc23)cc1 | 3.04 |
| Cc1ncc(CO)c(C=NNC(=O)c2ccc([N+](=O)[O-])cc2)c1O | 1.55 |
| Cc1ncc(CO)c(C=NNC(=O)c2ccco2)c1O | 1.39 |
| CC(=O)NN=Cc1c(CO)cnc(C)c1O | 0.65 |
| Cc1ncc(CO)c(C=NNC(=O)c2cccc(Cl)c2)c1O | 2.96 |
| O=C(NN=Cc1c(O)ccc2ccccc12)c1cccc(F)c1 | 4.06 |
| Cc1ccc(C(=O)NN=Cc2c(CO)cnc(C)c2O)cc1 | 2.54 |
| Cc1ncc(CO)c(C=NNC(=O)c2ccc(C(C)(C)C)cc2)c1O | 3.73 |
| O=C(NN=Cc1c(O)ccc2ccccc12)c1ccc([N+](=O)[O-])cc1 | 3.58 |
| COc1ccc(C(=O)NN=Cc2c(CO)cnc(C)c2O)cc1 | 2.47 |
| O=C(NN=Cc1c(O)ccc2ccccc12)c1ccco1 | 3.41 |
| Cc1ncc(CO)c(C=NNC(=O)c2cccc(Br)c2)c1O | 3.07 |
| Cc1ncc(CO)c(C=NNC(=O)c2cccs2)c1O | 2.11 |
| Cc1ncc(CO)c(C=NNC(=O)c2cccc(F)c2)c1O | 2.42 |
| COc1ccc(C(=O)NN=Cc2c(O)ccc3ccccc23)cc1 | 4.06 |

The next lines start with the values.

| logP | Structure (SMILES) |
| --- | --- |
| 3.03 | O=C(NN=Cc1ccccc1O)c1cccs1 |
| 3.95 | O=C(NN=Cc1c(O)ccc2ccccc12)c1ccc(O)cc1 |
| 2.56 | O=C(NN=Cc1ccccc1O)c1ccc(O)cc1 |
| 2.23 | Cc1ncc(CO)c(C=NNC(=O)c2ccccc2)c1O |
| 4.73 | CC(C)(C)c1ccc(C(=O)NN=Cc2ccccc2O)cc1 |
| 3.03 | O=C(NN=Cc1ccccc1O)c1ccc([N+](=O)[O-])cc1 |
| 3.91 | O=C(NN=Cc1ccccc1O)c1cccc(Br)c1 |
| 3.24 | Oc1ccccc1C=NNc1ccccn1 |
| 3.39 | Cc1ccc(C(=O)NN=Cc2ccccc2O)cc1 |
| 1.71 | CC(=O)NN=Cc1ccccc1O |
| 3.01 | O=C(NN=Cc1ccccc1O)c1ccccc1 |
| 3.34 | COc1ccc(C(=O)NN=Cc2ccccc2O)cc1 |
| 2.16 | O=C(NN=Cc1ccccc1O)c1ccncc1 |
| 2.67 | O=C(NN=Cc1ccccc1O)c1ccco1 |
| 3.83 | O=C(NN=Cc1ccccc1O)c1cccc(Cl)c1 |
| 1.14 | Cc1ncc(CO)c(C=NNC(=O)c2ccncc2)c1O |
| 3.41 | O=C(NN=Cc1ccccc1O)c1cccc(F)c1 |
| 2.16 | Nc1ccc(C(=O)NN=Cc2ccccc2O)cc1 |

From the OPERA property sets (Mansouri et al. 2018)
